Like-named read-outs stand apart in the source and are kept apart here.
How the values were obtained:
[1] = Intracellular ATP levels; type: cell-based, rat; conditions: rat
Description: (§1) One test compound (Compound A) was received as dry powder and evaluated for potential cytotoxicity in a battery of in vitro assays. The compound was tested using both rat cardiomyocytes (CM) from rat neonates and a rat hepatoma (H4IIE) cell line. […] The cell supernatant or the cells themselves were harvested for biochemical analysis. General cytotoxicity was evaluated by monitoring membrane integrity, mitochondrial function, cell proliferation, oxidative stress, and apoptosis. In addition, interaction with P-glycoprotein (PgP) on H4IIE cells and solubility of the test compound were also assessed. The means of each exposure group (n=3-7) were calculated for each assay performed.
(§2) Experimental Protocol: The test compound was provided and stored at 4° C. until needed. Dosing solutions were prepared in complete culture medium. The rat hepatoma (H4IIE) cell line was used as the test system.
Intracellular ATP Levels: Cellular Adenosine triphosphate (ATP) was determined with an assay based on a reaction between ATP+D-luciferin+oxygen catalyzed by luciferase to yield Oxyluciferin+AMP+PPi+CO2+light. The emitted light is proportional to the amount of ATP present. […] In addition, a unique cell lysis reagent inhibits endogenous ATPases and therefore stabilizes cellular ATP by preventing its degradation to ADP. ATP is present in all-living cells and declines rapidly upon cell death. In addition, this assay in combination with the MTT assay provides an indicator of mitochondrial activity and energy status of the cell.
Plates were analyzed immediately or stored at −20° C. until needed. On the day of analysis, the plates were thawed and calibration curve prepared with ATP in the same liquid matrix as samples. ATP was quantified by adding ATP substrate solution and then reading luminescence on a Packard Fusion Luminescence or equivalent plate reader.
Intracellular ATP Levels: ATP levels in treated cells could be determined by using the regression coefficients obtained from the linear regression analysis of the calibration curve. Thus, values could be expressed as pmoles ATP/million cells. Background corrected luminescence was used to determine percent change relative to controls by dividing treated values by control values and multiplying by 100.

[2] = system: rat cardiomyocytes; experiment: Caspase 3 activity (apoptosis); type: cell-based
Description: as §1
(§3) Caspase 3 Procedure: Caspase 3 activity was determined using a caspase substrate (DEVD, Asp-Glu-Val-Asp) labeled with a fluorescent molecule, 7-Amino4-methylcoumarin (AMC). Caspase 3 cleaves the tetrapeptide between D and AMC, thus releasing the fluorogenic […] AMC. Following the test article exposure to cells in 96-well plates, medium was aspirated from plates and PBS added to each well. Plates were stored at −80° C. to lyse cells and store samples until further analysis. On the day of analysis, plates were removed from freezer and thawed. Caspase buffer with fluorescent substrate was added to each well and incubated at room temperature for 1 hr. AMC release was measured in a spectrofluorometer at an excitation wavelength of 360 nm and an emission wavelength of 460 nm. Values are expressed as relative fluorescent units (RFU).
(§4) Caspase Activity: After sample plates were completely thawed, the caspase substrate buffer mix was added to each plate. Plates were incubated at room temperature for 1hr, shielded from light. Plates were read using a in a spectrofluorometer at an excitation wavelength of 360 nm and an emission wavelength of 460 nm. Values were expressed as relative fluorescent units (RFU).
(§5) The key to the maximal response data can be found below Table 2.

[3] = system: H4IIE cells; experiment: Caspase 3 activity (apoptosis); type: cell-based, rat
Description: as §1, §2, §3, §4, §5

[4] = molecular target: P-glycoprotein (PgP) (Homo sapiens, UniProt P08183); experiment: P-glycoprotein (PgP) binding: MTT with and without cyclosporin A, SK-MEL28 cells; type: cell-based; parameters: SK-MEL28, human hepatocytes, HUVEC, C32, and NHEM cells were used as the test systems; endogenous in cells; host or cells: SK-MEL28 cells; conditions: SK-MEL28 24 HR; for % Control (Compound + CSA): with cyclosporin A; for % Control (Compound): without CSA
P-glycoprotein (PgP), sequence (P08183 whole entry): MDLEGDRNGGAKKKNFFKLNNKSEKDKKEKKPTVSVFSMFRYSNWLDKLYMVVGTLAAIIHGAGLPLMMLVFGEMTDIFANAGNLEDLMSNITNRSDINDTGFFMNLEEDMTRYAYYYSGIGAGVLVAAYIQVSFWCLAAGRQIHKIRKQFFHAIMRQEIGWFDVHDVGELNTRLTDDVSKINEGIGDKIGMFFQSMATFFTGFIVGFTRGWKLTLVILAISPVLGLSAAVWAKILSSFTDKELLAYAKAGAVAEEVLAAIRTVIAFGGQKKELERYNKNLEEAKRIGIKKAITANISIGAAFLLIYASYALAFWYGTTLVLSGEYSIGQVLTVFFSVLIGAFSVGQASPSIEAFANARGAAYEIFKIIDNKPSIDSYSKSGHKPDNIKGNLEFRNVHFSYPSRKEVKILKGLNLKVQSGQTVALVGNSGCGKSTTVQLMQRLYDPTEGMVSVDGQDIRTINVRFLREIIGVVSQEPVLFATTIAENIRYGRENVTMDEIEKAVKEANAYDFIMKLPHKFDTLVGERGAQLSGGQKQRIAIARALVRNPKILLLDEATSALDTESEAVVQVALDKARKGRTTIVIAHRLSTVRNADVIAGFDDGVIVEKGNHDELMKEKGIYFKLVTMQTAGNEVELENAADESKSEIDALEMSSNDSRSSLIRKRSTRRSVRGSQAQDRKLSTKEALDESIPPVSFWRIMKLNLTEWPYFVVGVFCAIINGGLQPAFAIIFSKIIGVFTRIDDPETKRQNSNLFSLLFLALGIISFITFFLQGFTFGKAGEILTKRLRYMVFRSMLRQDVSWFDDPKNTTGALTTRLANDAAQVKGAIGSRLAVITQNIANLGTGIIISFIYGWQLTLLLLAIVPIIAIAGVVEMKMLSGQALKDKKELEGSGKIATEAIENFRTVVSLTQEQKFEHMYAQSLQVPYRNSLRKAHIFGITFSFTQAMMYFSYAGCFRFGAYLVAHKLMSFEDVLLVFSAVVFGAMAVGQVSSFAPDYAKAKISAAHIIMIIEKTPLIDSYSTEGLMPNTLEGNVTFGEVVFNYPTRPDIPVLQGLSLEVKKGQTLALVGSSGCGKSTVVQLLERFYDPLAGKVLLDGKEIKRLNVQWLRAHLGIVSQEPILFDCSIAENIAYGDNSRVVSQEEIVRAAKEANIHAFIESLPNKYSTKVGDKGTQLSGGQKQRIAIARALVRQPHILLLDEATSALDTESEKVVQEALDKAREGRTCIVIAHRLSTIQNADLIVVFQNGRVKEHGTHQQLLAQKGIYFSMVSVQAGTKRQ

[5] = system: NRK cells; experiment: Predicted Ctox from Tox-Panel; type: cell-based, rat
Description: Studies such as these indicate that a preferred concentration for setting Ctox is the highest concentration at which there is no observed effect on any of the indicators being measured in the cluster analysis, especially a 24-hour cluster analysis. […] It will be apparent that 24 hour assays are more time-effective, and consequently, the 24 hour NOEL/Ctox represents a preferred data point to select as Ctox in a CATS assay. It will also be apparent that, with further time studies, it may be possible to select an equally suitable Ctox at other CATS assay time points (e.g., between 24 and 72 hours, or less than 24 hours).
In certain embodiments, the predicting comprises performing concentration response analyses of measurements from at least three separate assays that are employed in the cluster analysis. For example, in the cell health cluster, such predicting will involve monitoring the concentration response effect of the compound on a first health indicator which monitors cellular replication, a second cell health indicator which monitors mitochondrial function, and a third cell health indicator which monitors membrane integrity. Of course, it is understood that fourth, fifth, sixth or more cell health indicators also may be employed. From these concentration response analyses, the highest concentration of the chemical compound at which a measurable toxic effect of the chemical compound is not observable, i.e. NOEL, is determined and the Ctox is identified as the concentration that correlates to the NOEL. In choosing the concentrations of the compound for analysis, one of skill in the art should devise a dose response regimen which is selected to provide an indication of cell health at concentrations of at least two concentration values higher than the Ctox concentration.
The third experiment was done to evaluate the specificity and selectivity of the test compound in another non-tumor cell that was derived from normal rat kidney tissue. In this experiment the test compound has no effect on cell number of acute cell death up to the 500 dilution after 6 and 24 hr of exposure (FIG. 76C and 77C). Significant effects were observed on mitochondrial markers at dilutions that dropped pH to 3.7. The bar graph in FIG. 82 summarizes these effects. […] In contrast the rat tumor cell line was sensitive to the test compound and cell death occurred at the 500 dilution and could not be attributed to low pH.

[6] = H4IIE rat hepatoma cells, H4IIE, 24 HR exposure, read-out: ATP TC50
[7] = H4IIE, 24 HR, exposure concentration that produced the response (μM series)

For `Nc1nc(NC2CC2)c2ncn([C@H]3C=C[C@@H](CO)C3)c2n1` [ABACAVIR, abacavir], the CC50 at 24 h ([1]; ATP TC50) was 154 µM.
With `CC[C@@]1(O)C(=O)OCc2c1cc1n(c2=O)Cc2cc3ccccc3nc2-1` [CAMPTOTHECIN, Camptothecin] the CC50 at 24 h [1, 6] was 1 µM, the “Caspase 3 Activity (Index/Dose): Index” value ([2]; CM, 24 HR) was 6 (1000-1200 = 6) and the “Caspase 3 Activity (Index/Dose): Dose” value ([2]; CM, 24 HR, exposure concentration that produced the response (μM series)) was 300. The “Caspase 3 Activity (Index/Dose): Index” value ([3]; H4IIE, 24 HR) was 5 (800-1000 = 5), the “Caspase 3 Activity (Index/Dose): Dose” value [3, 7] was 100 and the “% Control (Compound + CSA)” value [4] was 63.3%. For the same compound, the “% Control (Compound)” value [4] was 56.5%, the “Predicted Ctox” value ([5]; 6 HR) was 0.1 µM and the “Predicted Ctox” value ([5]; 24 HR) was 0.1 µM.
Work on `COc1cccc2c1C(=O)c1c(O)c3c(c(O)c1C2=O)C[C@@](O)(C(C)=O)C[C@@H]3O[C@H]1C[C@H](N)[C@H](O)[C@H](C)O1` [DAUNORUBICIN, daunorubicin] yielded a CC50 at 24 h [1] of 7 µM.
For `CC(C)Nc1cccnc1N1CCN(C(=O)c2cc3cc(NS(C)(=O)=O)ccc3[nH]2)CC1` [DELAVIRDINE, delavirdine], the CC50 at 24 h ([1]; ATP TC50) was 257 µM and the “Caspase 3 Activity (Index/Dose): Dose” value ([2]; rat, 24 h) was 100.
For `O=C1Nc2ccc(Cl)cc2[C@@](C#CC2CC2)(C(F)(F)F)O1` [EFAVIRENZ, efavirenz], the CC50 at 24 h ([1]; ATP TC50) was 162 µM.
For `COc1cccc2c1C(=O)c1c(O)c3c(c(O)c1C2=O)C[C@@](O)(C(=O)CO)C[C@@H]3O[C@H]1C[C@H](N)[C@@H](O)[C@H](C)O1` [EPIRUBICIN, epirubicin], the CC50 at 24 h ([1]; ATP TC50) was 32 µM, the “Caspase 3 Activity (Index/Dose): Dose” value ([2]; rat, 24 h) was 20 and the “Caspase 3 Activity (Index/Dose): Dose” value ([3]; rat, 24 h) was 50.
Work on `CC(=O)[C@]1(O)Cc2c(O)c3c(c(O)c2[C@@H](O[C@H]2C[C@H](N)[C@H](O)[C@H](C)O2)C1)C(=O)c1ccccc1C3=O` [IDARUBICIN, idarubicin] yielded a CC50 at 24 h ([1]; ATP TC50) of 2 µM.
For `Cc1cccc(C)c1OCC(=O)N[C@@H](Cc1ccccc1)[C@@H](O)C[C@H](Cc1ccccc1)NC(=O)[C@H](C(C)C)N1CCCNC1=O` [LOPINAVIR, lopinavir], the CC50 at 24 h ([1]; ATP TC50) was 195 µM, the “Caspase 3 Activity (Index/Dose): Dose” value ([2]; rat, 24 h) was 100 and the “Caspase 3 Activity (Index/Dose): Dose” value ([3]; rat, 24 h) was 300.
For `O=C1c2c(O)ccc(O)c2C(=O)c2c(NCCNCCO)ccc(NCCNCCO)c21` [MITOXANTRONE, mitoxantrone], the CC50 at 24 h ([1]; ATP TC50) was 5 µM.
In the case of `COc1cccc2c1C(=O)c1c(O)c3c(c(O)c1C2=O)C[C@@](O)(C(=O)CO)C[C@@H]3O[C@H]1C[C@H](N)[C@H](O[C@@H]2CCCCO2)[C@H](C)O1` [PIRARUBICIN, pirarubicin], the CC50 at 24 h [1, 6] was 8 µM, the “Caspase 3 Activity (Index/Dose): Index” value ([3]; H4IIE, 24 HR) was 8 (1400-1600 = 8) and the “Caspase 3 Activity (Index/Dose): Dose” value [3, 7] was 10 (1800-2000 = 10).
With `C=C(C)[C@H]1Cc2c(ccc3c2O[C@@H]2COc4cc(OC)c(OC)cc4[C@@H]2C3=O)O1` [ROTENONE, Rotenone] the CC50 at 24 h ([1]; H4IIE, 24 HR exposure, read-out: ATP TC50) was 0.04 µM, the “% Control (Compound + CSA)” value [4] was 117.3% and the “% Control (Compound)” value [4] was 98.2%. For the same compound, the “Predicted Ctox” value ([5]; 6 HR) was 1 µM and the “Predicted Ctox” value ([5]; 24 HR) was 1 µM.
